Assay results as given in patent publication US20180208622A1, “STABLE CRYSTALLINE FORM OF REGADENOSON” (SUN PHARMACEUTICAL INDUSTRIES LIMITED, priority 2015, published 2018).

What was measured:
[1] = Stability studies of crystal Form S, followed by XRPD; format: physicochemical
Protocol: XRD: X-ray powder diffraction analyses were carried out on a PANalytical Empyrean X-ray powder diffractometer using Cu K alpha radiation. The instrument was equipped with a line focus X-ray tube, and the voltage and amperage were set to 45 kV and 40 mA respectively. The scanning rate was set as 10 second per step and step size is set as 0.01°. The diffractometer was equipped with Pixcel^1D solid state detector and rotating sample stage. X-ray diffractometer was used to record diffractogram from 4° to 40° (2-theta).

[2] = WO2008143667A1, cited from earlier work

CNC(=O)c1cnn(-c2nc(N)c3ncn([C@@H]4O[C@H](CO)C(O)C4O)c3n2)c1 (some centres unmarked) [Form S, adenosine, 2-[4-[(methylamino)carbonyl]-1H-pyrazol-1-yl]]
change in XRPD under stability conditions ([1]; 25° C. and 60% relative humidity for more than 6 months (FIG. 3)): no significant change | change in XRPD in accelerated stability studies ([1]; 40° C. and 75% relative humidity for more than 2 months (FIG. 2)): did not change significantly | stability when stored ([1]; stored at 25° C. and 60% relative humidity for at least 6 months): stable

CNC(=O)c1cnn(-c2nc(N)c3ncn([C@@H]4O[C@H](CO)[C@@H](O)[C@H]4O)c3n2)c1 [Form A, adenosine, 2-[4-[(methylamino)carbonyl]-1H-pyrazol-1-yl]]
stability of the crystalline form ([2]; among Form A, Form B, Form C and amorphous product): most stable form

CNC(=O)c1cnn(-c2nc(N)c3ncn([C@@H]4O[C@H](CO)[C@@H](O)[C@H]4O)c3n2)c1 [polymorph C, adenosine, 2-[4-[(methylamino)carbonyl]-1H-pyrazol-1-yl]]
behaviour at elevated temperatures ([2]; elevated temperatures): desolvates to an unstable form
